Reference: paper PMC7366380, “Discovery of a Potent and Selective Covalent Inhibitor and Activity-Based Probe for the Deubiquitylating Enzyme UCHL1, with Antifibrotic Activity” (Journal of the American Chemical Society, 2020)
Where “and” joins values, the source holds several entries; their conditions need not be identical. Equal entries are not always repeated.

Tests used:
[1] = molecular target: USP1 (Homo sapiens, UniProt O94782); test: biochemical
[2] = molecular target: DUBs and other proteins in HEK293 cells (Homo sapiens, UniProt Q14694); test: In-cell proteome-wide competitive ABPP, HEK293: other DUBs and proteins; conditions: replicates A-C; for Log2 reporter intensity values: USP10: competition with ABP 2, DMSO substract (FC); for Log2 reporter intensity values: USP10, DMSO subtracted
Chain of DUBs and other proteins in HEK293 cells (Homo sapiens, UniProt Q14694) (Q14694 whole entry): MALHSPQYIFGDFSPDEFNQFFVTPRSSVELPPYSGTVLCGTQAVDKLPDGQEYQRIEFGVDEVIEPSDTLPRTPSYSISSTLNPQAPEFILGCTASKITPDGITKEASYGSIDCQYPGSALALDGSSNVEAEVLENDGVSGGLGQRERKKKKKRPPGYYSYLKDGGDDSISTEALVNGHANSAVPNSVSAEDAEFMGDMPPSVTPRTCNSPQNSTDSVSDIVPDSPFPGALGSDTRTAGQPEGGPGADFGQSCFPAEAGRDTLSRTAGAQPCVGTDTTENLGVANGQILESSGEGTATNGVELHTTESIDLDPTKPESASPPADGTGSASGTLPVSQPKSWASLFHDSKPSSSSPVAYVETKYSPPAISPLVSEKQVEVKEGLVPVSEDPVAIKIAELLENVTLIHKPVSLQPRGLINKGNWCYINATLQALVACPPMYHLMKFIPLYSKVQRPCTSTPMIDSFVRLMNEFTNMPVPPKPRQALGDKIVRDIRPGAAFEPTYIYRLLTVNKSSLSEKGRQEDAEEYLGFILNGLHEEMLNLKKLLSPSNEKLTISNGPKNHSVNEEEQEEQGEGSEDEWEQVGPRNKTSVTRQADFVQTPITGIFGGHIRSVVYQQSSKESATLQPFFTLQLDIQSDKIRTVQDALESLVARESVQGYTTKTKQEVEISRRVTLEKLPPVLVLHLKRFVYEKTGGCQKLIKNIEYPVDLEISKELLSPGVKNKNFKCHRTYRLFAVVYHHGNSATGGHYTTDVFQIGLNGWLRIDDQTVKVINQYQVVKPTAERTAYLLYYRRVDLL

[3] = molecular target: DUBs and other proteins in HEK293 cells (Homo sapiens, UniProt P51784); test: as above; conditions: replicates A-C; for Log2 reporter intensity values: USP11: DMSO substract (FC); for Log2 reporter intensity values: USP11, DMSO subtracted
Chain of DUBs and other proteins in HEK293 cells (Homo sapiens, UniProt P51784) (P51784 whole entry): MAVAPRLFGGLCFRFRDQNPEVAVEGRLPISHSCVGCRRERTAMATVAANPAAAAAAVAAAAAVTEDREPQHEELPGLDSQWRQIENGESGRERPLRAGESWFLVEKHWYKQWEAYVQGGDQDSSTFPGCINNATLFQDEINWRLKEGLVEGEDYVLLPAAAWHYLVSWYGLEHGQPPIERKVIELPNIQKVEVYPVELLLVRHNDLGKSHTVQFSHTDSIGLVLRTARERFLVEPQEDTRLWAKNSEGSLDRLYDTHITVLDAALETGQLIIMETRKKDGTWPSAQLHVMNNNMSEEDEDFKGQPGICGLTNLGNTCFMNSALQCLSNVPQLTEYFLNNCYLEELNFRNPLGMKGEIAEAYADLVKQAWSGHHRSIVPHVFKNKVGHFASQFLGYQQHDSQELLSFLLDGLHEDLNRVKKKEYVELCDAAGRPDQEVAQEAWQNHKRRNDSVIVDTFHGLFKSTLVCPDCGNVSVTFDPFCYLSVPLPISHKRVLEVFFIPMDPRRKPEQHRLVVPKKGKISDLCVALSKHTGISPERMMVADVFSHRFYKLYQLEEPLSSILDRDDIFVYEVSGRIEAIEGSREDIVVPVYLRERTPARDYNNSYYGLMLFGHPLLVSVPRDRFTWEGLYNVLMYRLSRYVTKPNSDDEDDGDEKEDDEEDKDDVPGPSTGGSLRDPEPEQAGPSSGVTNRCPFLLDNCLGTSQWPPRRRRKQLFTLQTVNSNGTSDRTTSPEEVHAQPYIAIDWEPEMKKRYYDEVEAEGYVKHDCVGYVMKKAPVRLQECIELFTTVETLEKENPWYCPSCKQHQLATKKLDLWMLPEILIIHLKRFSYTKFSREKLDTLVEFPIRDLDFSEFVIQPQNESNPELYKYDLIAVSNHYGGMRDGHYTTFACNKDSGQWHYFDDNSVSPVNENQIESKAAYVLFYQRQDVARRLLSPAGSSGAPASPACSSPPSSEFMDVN

[4] = molecular target: DUBs and other proteins in HEK293 cells (Homo sapiens, UniProt Q93009); test: as above; conditions: replicates A-C; for Log2 reporter intensity values: USP7: DMSO substract (FC); for Log2 reporter intensity values: USP7, DMSO subtracted
Chain of DUBs and other proteins in HEK293 cells (Homo sapiens, UniProt Q93009) (Q93009 whole entry): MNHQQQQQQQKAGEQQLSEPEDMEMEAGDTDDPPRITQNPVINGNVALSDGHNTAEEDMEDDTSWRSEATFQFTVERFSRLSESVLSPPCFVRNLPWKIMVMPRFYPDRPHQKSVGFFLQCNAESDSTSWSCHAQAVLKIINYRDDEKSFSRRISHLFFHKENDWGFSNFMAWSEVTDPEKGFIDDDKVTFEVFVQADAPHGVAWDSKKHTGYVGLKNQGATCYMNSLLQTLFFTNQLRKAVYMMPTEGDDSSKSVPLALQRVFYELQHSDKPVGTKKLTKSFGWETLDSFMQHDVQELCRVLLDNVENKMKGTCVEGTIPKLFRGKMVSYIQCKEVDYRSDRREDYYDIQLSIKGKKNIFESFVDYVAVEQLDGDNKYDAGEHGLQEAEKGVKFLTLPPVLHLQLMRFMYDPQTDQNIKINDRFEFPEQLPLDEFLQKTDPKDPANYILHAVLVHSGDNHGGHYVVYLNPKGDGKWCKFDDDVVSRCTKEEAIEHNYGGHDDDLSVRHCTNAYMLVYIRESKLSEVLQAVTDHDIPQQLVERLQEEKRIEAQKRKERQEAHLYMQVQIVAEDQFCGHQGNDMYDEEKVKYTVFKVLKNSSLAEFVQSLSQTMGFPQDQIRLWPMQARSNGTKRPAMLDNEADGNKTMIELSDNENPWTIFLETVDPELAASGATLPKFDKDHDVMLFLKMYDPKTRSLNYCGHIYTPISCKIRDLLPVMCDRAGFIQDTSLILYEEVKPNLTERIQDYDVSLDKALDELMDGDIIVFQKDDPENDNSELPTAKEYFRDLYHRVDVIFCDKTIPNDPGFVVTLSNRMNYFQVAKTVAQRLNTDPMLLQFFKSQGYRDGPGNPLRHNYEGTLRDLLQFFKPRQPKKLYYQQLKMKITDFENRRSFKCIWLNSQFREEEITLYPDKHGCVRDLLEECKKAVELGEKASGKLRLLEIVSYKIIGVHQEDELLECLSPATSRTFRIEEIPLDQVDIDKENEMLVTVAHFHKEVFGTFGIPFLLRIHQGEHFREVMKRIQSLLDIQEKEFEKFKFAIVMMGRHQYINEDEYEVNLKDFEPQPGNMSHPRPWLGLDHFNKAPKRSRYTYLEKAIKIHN

[5] = molecular target: DUBs and other proteins in HEK293 cells (Homo sapiens, UniProt Q96FW1); test: as above; conditions: replicates A-C; for Log2 reporter intensity values: OTUB1: DMSO substract (FC); for Log2 reporter intensity values: OTUB1, DMSO subtracted
Chain of DUBs and other proteins in HEK293 cells (Homo sapiens, UniProt Q96FW1) (Q96FW1 whole entry): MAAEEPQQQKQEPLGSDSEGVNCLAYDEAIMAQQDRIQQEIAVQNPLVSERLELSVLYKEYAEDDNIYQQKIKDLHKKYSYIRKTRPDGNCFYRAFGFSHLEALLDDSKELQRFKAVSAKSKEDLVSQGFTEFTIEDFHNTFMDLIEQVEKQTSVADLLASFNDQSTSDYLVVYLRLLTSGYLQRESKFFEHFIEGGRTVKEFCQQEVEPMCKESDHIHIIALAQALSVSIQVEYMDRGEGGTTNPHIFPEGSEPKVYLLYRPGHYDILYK

[6] = molecular target: DUBs and other proteins in HEK293 cells (Homo sapiens, UniProt Q96BN8); test: as above; conditions: replicates A-C; for Log2 reporter intensity values: OTULIN: DMSO substract (FC); for Log2 reporter intensity values: OTULIN, DMSO subtracted
Chain of DUBs and other proteins in HEK293 cells (Homo sapiens, UniProt Q96BN8) (Q96BN8 whole entry): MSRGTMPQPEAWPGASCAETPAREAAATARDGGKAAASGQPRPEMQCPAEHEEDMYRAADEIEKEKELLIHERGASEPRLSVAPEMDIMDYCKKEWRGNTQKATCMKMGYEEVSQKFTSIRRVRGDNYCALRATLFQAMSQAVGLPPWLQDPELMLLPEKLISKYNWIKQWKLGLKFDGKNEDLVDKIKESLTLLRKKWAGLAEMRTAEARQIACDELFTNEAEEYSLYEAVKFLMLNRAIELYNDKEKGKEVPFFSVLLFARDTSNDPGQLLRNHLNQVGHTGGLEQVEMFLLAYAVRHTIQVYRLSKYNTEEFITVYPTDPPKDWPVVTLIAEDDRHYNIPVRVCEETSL

[7] = molecular target: DUBs and other proteins in HEK293 cells (Homo sapiens, UniProt Q7L5N1); test: as above; conditions: for Log2 reporter intensity values, COPS6: TMT replicates; for Log2 t-test Difference / Log2 reporter intensity values: COPS6; for Log2 reporter intensity values / Log2 reporter intensity values: COPS6: replicates A-C; for Log2 reporter intensity values: COPS6: DMSO substract (FC)
Chain of DUBs and other proteins in HEK293 cells (Homo sapiens, UniProt Q7L5N1) (Q7L5N1 whole entry): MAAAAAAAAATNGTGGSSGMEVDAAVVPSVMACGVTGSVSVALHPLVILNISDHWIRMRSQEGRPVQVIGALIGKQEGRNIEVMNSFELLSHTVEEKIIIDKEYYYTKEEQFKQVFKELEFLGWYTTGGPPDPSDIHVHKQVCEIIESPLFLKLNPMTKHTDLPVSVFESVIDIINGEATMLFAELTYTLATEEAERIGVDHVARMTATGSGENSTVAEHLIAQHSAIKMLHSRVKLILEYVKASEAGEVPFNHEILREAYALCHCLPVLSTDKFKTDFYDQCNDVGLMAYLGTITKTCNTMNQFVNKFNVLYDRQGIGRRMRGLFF

[8] = molecular target: DUBs and other proteins in HEK293 cells (Homo sapiens, UniProt Q9Y5T5); test: as above; conditions: replicates A-C; for Log2 reporter intensity values: USP16: competition with ABP 2, DMSO substract (FC); for Log2 reporter intensity values: USP16, DMSO subtracted
Chain of DUBs and other proteins in HEK293 cells (Homo sapiens, UniProt Q9Y5T5) (Q9Y5T5 whole entry): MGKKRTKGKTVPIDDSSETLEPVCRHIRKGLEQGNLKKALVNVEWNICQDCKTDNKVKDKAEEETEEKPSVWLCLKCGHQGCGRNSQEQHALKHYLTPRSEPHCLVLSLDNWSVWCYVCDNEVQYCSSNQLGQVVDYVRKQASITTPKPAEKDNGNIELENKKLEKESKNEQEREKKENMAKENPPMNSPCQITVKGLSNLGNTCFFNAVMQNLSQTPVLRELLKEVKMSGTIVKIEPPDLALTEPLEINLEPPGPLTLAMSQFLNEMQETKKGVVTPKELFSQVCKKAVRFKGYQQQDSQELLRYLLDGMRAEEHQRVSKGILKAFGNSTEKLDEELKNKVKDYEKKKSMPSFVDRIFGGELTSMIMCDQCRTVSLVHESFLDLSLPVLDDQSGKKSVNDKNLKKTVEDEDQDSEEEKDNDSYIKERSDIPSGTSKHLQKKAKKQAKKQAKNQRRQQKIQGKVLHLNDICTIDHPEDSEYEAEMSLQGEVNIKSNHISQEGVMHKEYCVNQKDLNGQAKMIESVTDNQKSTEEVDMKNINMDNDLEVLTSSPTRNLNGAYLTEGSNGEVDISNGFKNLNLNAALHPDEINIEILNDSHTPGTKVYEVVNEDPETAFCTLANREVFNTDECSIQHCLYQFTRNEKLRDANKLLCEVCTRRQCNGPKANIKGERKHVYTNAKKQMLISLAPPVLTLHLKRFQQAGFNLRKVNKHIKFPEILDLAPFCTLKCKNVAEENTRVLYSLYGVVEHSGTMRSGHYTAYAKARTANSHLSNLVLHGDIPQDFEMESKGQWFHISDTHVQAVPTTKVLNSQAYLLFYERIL

[9] = molecular target: T1, DUBs and other proteins in HEK293 cells (Homo sapiens, UniProt Q53GS9); test: as above; conditions: replicates A-C; for Log2 reporter intensity values: USP39: DMSO substract (FC); for Log2 reporter intensity values: USP39, DMSO subtracted
T1 sequence (Q53GS9 1-565): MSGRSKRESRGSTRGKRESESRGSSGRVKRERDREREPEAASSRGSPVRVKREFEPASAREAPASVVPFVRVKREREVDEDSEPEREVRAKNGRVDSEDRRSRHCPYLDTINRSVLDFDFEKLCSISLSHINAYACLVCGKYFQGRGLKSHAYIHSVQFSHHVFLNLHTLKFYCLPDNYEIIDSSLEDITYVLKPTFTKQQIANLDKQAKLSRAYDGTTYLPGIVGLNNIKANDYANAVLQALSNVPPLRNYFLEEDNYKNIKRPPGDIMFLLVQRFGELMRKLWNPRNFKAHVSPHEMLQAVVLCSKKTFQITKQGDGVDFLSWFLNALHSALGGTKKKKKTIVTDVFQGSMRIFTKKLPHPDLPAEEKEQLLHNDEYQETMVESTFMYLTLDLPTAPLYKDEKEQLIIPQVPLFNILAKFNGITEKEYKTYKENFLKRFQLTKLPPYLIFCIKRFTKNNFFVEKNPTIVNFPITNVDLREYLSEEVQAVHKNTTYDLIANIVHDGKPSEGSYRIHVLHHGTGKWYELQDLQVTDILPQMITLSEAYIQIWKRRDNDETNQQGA

[10] = LDN at 5 μM, competition with ABP 2
[11] = LDN at 25 μM, competition with ABP 2

## CC(=O)O/N=C1\C(=O)N(Cc2cc(Cl)ccc2Cl)c2ccc(Cl)cc21 [LDN-57444, reference compound]
[1]
  IC50: > 10 µM

## CC(=O)O/N=C1\C(=O)N(Cc2cc(Cl)ccc2Cl)c2ccc(Cl)cc21 [LDN]
[2]; LDN at 5 μM
  Log2 reporter intensity values: USP10: 0.9581 and 0.8382 and 0.9082
  Log2 reporter intensity values: -0.06168 and -0.2546 and -0.1389
[2]; LDN at 25 μM
  Log2 reporter intensity values: USP10: 0.9726 and 0.903 and 0.8841
  Log2 reporter intensity values: -0.04009 and -0.1472 and -0.1778
[2]; LDN_5 μM
  Log2 reporter intensity values: -0.04282 and -0.1627 and -0.09278
[2]; LDN_25 μM
  Log2 reporter intensity values: -0.02837 and -0.09796 and -0.1169
[3]; [10]
  Log2 reporter intensity values: USP11: 1.03 and 1.059 and 1.019
[3]; [11]
  Log2 reporter intensity values: USP11: 1.058 and 0.9885 and 1.048
[3]; LDN at 5 μM
  Log2 reporter intensity values: 0.04194 and 0.08295 and 0.02661
[3]; LDN at 25 μM
  Log2 reporter intensity values: 0.082 and -0.01664 and 0.06827
[3]; LDN_5 μM
  Log2 reporter intensity values: 0.02916 and 0.05885 and 0.01828
[3]; LDN_25 μM
  Log2 reporter intensity values: 0.05815 and -0.0118 and 0.04812
[4]; [10]
  Log2 reporter intensity values: USP7: 1.02 and 1.001 and 1.029
[4]; [11]
  Log2 reporter intensity values: USP7: 0.9945 and 1.07 and 1.065
[4]; LDN at 5 μM
  Log2 reporter intensity values: 0.02794 and 0.001316 and 0.0413
[4]; LDN at 25 μM
  Log2 reporter intensity values: -0.007921 and 0.09748 and 0.09021
[4]; LDN_5 μM
  Log2 reporter intensity values: 0.01927 and 0.0006308 and 0.02876
[4]; LDN_25 μM
  Log2 reporter intensity values: -0.005757 and 0.06962 and 0.06425
[5]; [10]
  Log2 reporter intensity values: OTUB1: 1.034 and 1.042 and 1.019
[5]; [11]
  Log2 reporter intensity values: OTUB1: 1.066 and 0.9796 and 1.019
[5]; LDN at 5 μM
  Log2 reporter intensity values: 0.04805 and 0.05934 and 0.02777
[5]; LDN at 25 μM
  Log2 reporter intensity values: 0.09269 and -0.02973 and 0.02677
[5]; LDN_5 μM
  Log2 reporter intensity values: 0.03375 and 0.04187 and 0.01932
[5]; LDN_25 μM
  Log2 reporter intensity values: 0.06623 and -0.02052 and 0.01861
[6]; [10]
  Log2 reporter intensity values: OTULIN: 0.9147 and 1.064 and 1.028
[6]; [11]
  Log2 reporter intensity values: OTULIN: 0.944 and 1.042 and 0.9874
[6]; LDN at 5 μM
  Log2 reporter intensity values: -0.1287 and 0.0891 and 0.03957
[6]; LDN at 25 μM
  Log2 reporter intensity values: -0.08321 and 0.05912 and -0.01826
[6]; LDN_5 μM
  Log2 reporter intensity values: -0.08587 and 0.06318 and 0.02728
[6]; LDN_25 μM
  Log2 reporter intensity values: -0.05657 and 0.0413 and -0.01311
[7]; 5 μM LDN-57444 (60 min) + 20 nM ABP 2 (10 min), All values
  Log2 reporter intensity values, COPS6: 0.1306 and 0.0287 and 0.0623
[7]; 5 μM LDN-57444 (60 min) + 20 nM ABP 2 (10 min), DMSO subtracted
  Log2 reporter intensity values, COPS6: 0.1181 and 0.01629 and 0.04989
[7]; 25 μM LDN-57444 (60 min) + 20 nM ABP 2 (10 min), All values
  Log2 reporter intensity values, COPS6: -0.04892 and -0.02797 and -0.1172
[7]; 25 μM LDN-57444 (60 min) + 20 nM ABP 2 (10 min), DMSO subtracted
  Log2 reporter intensity values, COPS6: -0.06133 and -0.04038 and -0.1296
[7]; LDN - 5 μM
  Log2 t-test Difference: 0.0178
[7]; LDN at 5 μM, DMSO subtracted
  Log2 reporter intensity values: 0.1181 and 0.01629 and 0.04989
[7]; LDN at 25 μM, DMSO subtracted
  Log2 reporter intensity values: -0.06133 and -0.04038 and -0.1296
[7]; LDN_5 μM, DMSO subtracted
  Log2 reporter intensity values: 0.08523 and 0.01124 and 0.03507
[7]; LDN_25 μM, DMSO subtracted
  Log2 reporter intensity values: -0.04173 and -0.02772 and -0.08603
[7]; [10]
  Log2 reporter intensity values: COPS6: 1.085 and 1.011 and 1.035
[7]; [11]
  Log2 reporter intensity values: COPS6: 0.9584 and 0.9724 and 0.9141
[8]; LDN at 5 μM
  Log2 reporter intensity values: USP16: 1.149 and 1.181 and 1.095
  Log2 reporter intensity values: 0.2004 and 0.2395 and 0.1308
[8]; LDN at 25 μM
  Log2 reporter intensity values: USP16: 1.216 and 1.053 and 1.129
  Log2 reporter intensity values: 0.2823 and 0.07456 and 0.1753
[8]; LDN_5 μM
  Log2 reporter intensity values: 0.1468 and 0.1784 and 0.09274
[8]; LDN_25 μM
  Log2 reporter intensity values: 0.2139 and 0.05085 and 0.127
[9]; [10]
  Log2 reporter intensity values: USP39: 1.029 and 1.043 and 0.9785
[9]; [11]
  Log2 reporter intensity values: USP39: 1.07 and 1.069 and 1.033
[9]; LDN at 5 μM
  Log2 reporter intensity values: 0.04123 and 0.06024 and -0.03137
[9]; LDN at 25 μM
  Log2 reporter intensity values: 0.09762 and 0.09571 and 0.04713
[9]; LDN_5 μM
  Log2 reporter intensity values: 0.02838 and 0.04203 and -0.02212
[9]; LDN_25 μM
  Log2 reporter intensity values: 0.0694 and 0.06798 and 0.0326

## C#Cc1cnc2[nH]cc(-c3cccc4c3CCN4C(=O)[C@@H]3CCCN3C#N)c2c1 [Compound 2]
[3]; 20 nM ABP 2 alone
  Log2 reporter intensity values: USP11: 0.9204 and 1.006 and 0.9863
[3]; 20 nM ABP 2
  Log2 reporter intensity values: -0.1196 and 0.008385 and -0.01996 and -0.07989 and 0.005492 and -0.01408
[4]; 20 nM ABP 2 alone
  Log2 reporter intensity values: USP7: 0.9183 and 1.036 and 1.009
[4]; 20 nM ABP 2
  Log2 reporter intensity values: 0.05058 and 0.01361 and -0.082 and 0.009195
[5]; 20 nM ABP 2 alone
  Log2 reporter intensity values: OTUB1: 1.065 and 1.087 and 1.08
[5]; 20 nM ABP 2
  Log2 reporter intensity values: 0.1206 and 0.06511 and 0.07959
[6]; 20 nM ABP 2 alone
  Log2 reporter intensity values: OTULIN: 0.9844
[6]; 20 nM ABP 2
  Log2 reporter intensity values: 0.01067 and 0.1122 and -0.02265 and 0.006896 and 0.08034 and -0.01611
[7]; 20 nM ABP 2 (10 min), no competitor, All values
  Log2 reporter intensity values, COPS6: 0.06809 and 0.08942 and 0.01065
[7]; 20 nM ABP 2 (10 min), no competitor, DMSO subtracted
  Log2 reporter intensity values, COPS6: 0.05567 and 0.07701 and -0.001766
[7]; 20 nM ABP 2 alone
  Log2 reporter intensity values: COPS6: 1.039 and 1.055 and 0.9988
[7]; 20 nM ABP 2, DMSO subtracted
  Log2 reporter intensity values: 0.05567 and 0.07701 and -0.001766 and 0.03923 and 0.05472 and -0.001335
[7]; ABP 2 - 20 nM
  Log2 t-test Difference: 0.04364
[9]; 20 nM ABP 2 alone
  Log2 reporter intensity values: USP39: 0.9355 and 0.9539 and 0.9302
[9]; 20 nM ABP 2
  Log2 reporter intensity values: -0.09621 and -0.06804 and -0.1044 and -0.06512 and -0.04668 and -0.07041
